Results as given in PubChem BioAssay (NCI).
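Values below derive from 48-hour exposures of cells grown in 96-well plates, with endpoints linearly interpolated between the two concentrations bracketing the appropriate inhibition level. GI50 = concentration required for 50% inhibition of growth. TGI: concentration producing complete growth inhibition.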

How the values were obtained:
Test in all cases: NCI anticancer screen, dose series, 48 h
U251 CNS = system: U251 CNS
A498 renal = system: A498 renal
SK-MEL-28 melanoma = system: SK-MEL-28 melanoma
T-47D breast = system: T-47D breast
OVCAR-3 ovarian = system: OVCAR-3 ovarian
OVCAR-4 ovarian = system: OVCAR-4 ovarian
UO-31 renal = system: UO-31 renal
SK-OV-3 ovarian = system: SK-OV-3 ovarian
SF-268 CNS = system: SF-268 CNS
PC-3 prostate = system: PC-3 prostate
COLO 205 colon = system: COLO 205 colon
SNB-19 CNS = system: SNB-19 CNS
NCI-H460 lung = system: NCI-H460 lung
SN12C renal = system: SN12C renal
SF-539 CNS = system: SF-539 CNS
EKVX NSCLC = system: EKVX NSCLC
UACC-62 melanoma = system: UACC-62 melanoma
SF-295 CNS = system: SF-295 CNS
MALME-3M melanoma = system: MALME-3M melanoma
LOX IMVI melanoma = system: LOX IMVI melanoma
NCI-H23 lung = system: NCI-H23 lung
M14 melanoma = system: M14 melanoma
KM12 colon = system: KM12 colon
HS 578T breast = system: HS 578T breast
NCI/ADR-RES ovarian = system: NCI/ADR-RES ovarian
HCC-2998 colon = system: HCC-2998 colon
MDA-MB-435 = system: MDA-MB-435
SK-MEL-5 melanoma = system: SK-MEL-5 melanoma
HCT-15 colon = system: HCT-15 colon
MCF7 breast = system: MCF7 breast
NCI-H226 lung = system: NCI-H226 lung
786-0 renal = system: 786-0 renal
RPMI-8226 leukemia = system: RPMI-8226 leukemia
MDA-MB-231 breast = system: MDA-MB-231 breast
HOP-92 NSCLC = system: HOP-92 NSCLC
SK-MEL-2 melanoma = system: SK-MEL-2 melanoma
OVCAR-5 ovarian = system: OVCAR-5 ovarian
NCI-H522 lung = system: NCI-H522 lung
CCRF-CEM leukemia = system: CCRF-CEM leukemia
K-562 leukemia = system: K-562 leukemia
UACC-257 melanoma = system: UACC-257 melanoma
CAKI-1 renal = system: CAKI-1 renal
RXF 393 renal = system: RXF 393 renal
HOP-62 NSCLC = system: HOP-62 NSCLC
TK-10 renal = system: TK-10 renal
OVCAR-8 ovarian = system: OVCAR-8 ovarian
A549 NSCLC = system: A549 NSCLC
IGROV1 ovarian = system: IGROV1 ovarian
BT-549 breast = system: BT-549 breast
ACHN renal = system: ACHN renal
HT29 colon = system: HT29 colon
HCT-116 colon = system: HCT-116 colon
DU-145 prostate = system: DU-145 prostate

Structure (SMILES): C=C(C)[C@@]12OC3(/C=C/C=C/CCCCC)O[C@@H]1[C@@H]1[C@@H]4O[C@]4(CO)[C@@H](O)[C@]4(O)C(=O)C(C)=C[C@H]4[C@@]1(O3)[C@H](C)[C@H]2OC(=O)c1ccccc1
- GI50 (U251 CNS): 1.24 µM
- TGI (U251 CNS): 2.48 µM
- GI50 (A498 renal): < 0.01 µM
- GI50 (SK-MEL-28 melanoma): 1.18 µM
- TGI (SK-MEL-28 melanoma): 2.42 µM
- GI50 (T-47D breast): 2.2 µM
- TGI (T-47D breast): 7.25 µM
- GI50 (OVCAR-3 ovarian): 1.68 µM
- TGI (OVCAR-3 ovarian): 3.08 µM
- GI50 (OVCAR-4 ovarian): 1.91 µM
- TGI (OVCAR-4 ovarian): 3.82 µM
- GI50 (UO-31 renal): 0.0221 µM
- TGI (UO-31 renal): 1.85 µM
- GI50 (SK-OV-3 ovarian): 2.44 µM
- TGI (SK-OV-3 ovarian): 4.9 µM
- GI50 (SF-268 CNS): 1.7 µM
- TGI (SF-268 CNS): 3.15 µM
- GI50 (PC-3 prostate): 1.46 µM
- TGI (PC-3 prostate): 3.3 µM
- GI50 (COLO 205 colon): < 0.01 µM
- TGI (COLO 205 colon): 1.6 µM
- GI50 (SNB-19 CNS): 1.92 µM
- TGI (SNB-19 CNS): 3.91 µM
- GI50 (NCI-H460 lung): < 0.01 µM
- TGI (NCI-H460 lung): 2.29 µM
- GI50 (SN12C renal): 1.49 µM
- TGI (SN12C renal): 2.83 µM
- GI50 (SF-539 CNS): 1.41 µM
- TGI (SF-539 CNS): 2.8 µM
- GI50 (EKVX NSCLC): 1.28 µM
- TGI (EKVX NSCLC): 2.86 µM
- GI50 (UACC-62 melanoma): 3.19 µM
- TGI (UACC-62 melanoma): 6.86 µM
- GI50 (SF-295 CNS): < 0.01 µM
- TGI (SF-295 CNS): 4.9 µM
- GI50 (MALME-3M melanoma): 11.3 µM
- TGI (MALME-3M melanoma): 26.9 µM
- GI50 (LOX IMVI melanoma): 1.1 µM
- TGI (LOX IMVI melanoma): 2.29 µM
- GI50 (NCI-H23 lung): 2.84 µM
- TGI (NCI-H23 lung): 8.12 µM
- GI50 (M14 melanoma): 1.57 µM
- TGI (M14 melanoma): 5.38 µM
- GI50 (KM12 colon): 1.61 µM
- TGI (KM12 colon): 2.99 µM
- GI50 (HS 578T breast): < 0.01 µM
- TGI (HS 578T breast): 2.21 µM
- GI50 (NCI/ADR-RES ovarian): 3.13 µM
- TGI (NCI/ADR-RES ovarian): 8.9 µM
- GI50 (HCC-2998 colon): < 0.01 µM
- TGI (HCC-2998 colon): 1.8 µM
- GI50 (MDA-MB-435): < 0.01 µM
- TGI (MDA-MB-435): 4.56 µM
- GI50 (SK-MEL-5 melanoma): < 0.01 µM
- TGI (SK-MEL-5 melanoma): 1.86 µM
- GI50 (HCT-15 colon): 1.42 µM
- TGI (HCT-15 colon): 2.9 µM
- GI50 (MCF7 breast): 1.55 µM
- TGI (MCF7 breast): 3.31 µM
- GI50 (NCI-H226 lung): 1.68 µM
- TGI (NCI-H226 lung): 3.21 µM
- GI50 (786-0 renal): 1.23 µM
- TGI (786-0 renal): 2.53 µM
- GI50 (RPMI-8226 leukemia): 3.35 µM
- TGI (RPMI-8226 leukemia): > 23.2 µM
- GI50 (MDA-MB-231 breast): 0.118 µM
- TGI (MDA-MB-231 breast): 2.27 µM
- GI50 (HOP-92 NSCLC): < 0.01 µM
- TGI (HOP-92 NSCLC): 2.13 µM
- GI50 (SK-MEL-2 melanoma): 1.48 µM
- TGI (SK-MEL-2 melanoma): 3.85 µM
- GI50 (OVCAR-5 ovarian): 4.43 µM
- TGI (OVCAR-5 ovarian): 8.62 µM
- GI50 (NCI-H522 lung): 1.27 µM
- TGI (NCI-H522 lung): 2.71 µM
- GI50 (CCRF-CEM leukemia): < 0.01 µM
- TGI (CCRF-CEM leukemia): 2.66 µM
- GI50 (K-562 leukemia): < 0.01 µM
- TGI (K-562 leukemia): 1.87 µM
- GI50 (UACC-257 melanoma): 8.13 µM
- TGI (UACC-257 melanoma): 21.5 µM
- GI50 (CAKI-1 renal): < 0.01 µM
- TGI (CAKI-1 renal): 0.0347 µM
- GI50 (RXF 393 renal): 1.87 µM
- TGI (RXF 393 renal): 3.49 µM
- GI50 (HOP-62 NSCLC): < 0.01 µM
- TGI (HOP-62 NSCLC): 4.84 µM
- GI50 (TK-10 renal): < 0.0106 µM
- TGI (TK-10 renal): 2.17 µM
- GI50 (OVCAR-8 ovarian): 2.77 µM
- TGI (OVCAR-8 ovarian): 7.08 µM
- GI50 (A549 NSCLC): < 0.01 µM
- TGI (A549 NSCLC): 2.04 µM
- GI50 (IGROV1 ovarian): 1.62 µM
- TGI (IGROV1 ovarian): 3.18 µM
- GI50 (BT-549 breast): 1.66 µM
- TGI (BT-549 breast): 4.38 µM
- GI50 (ACHN renal): 1.16 µM
- TGI (ACHN renal): 4.43 µM
- GI50 (HT29 colon): 1.4 µM
- TGI (HT29 colon): 2.94 µM
- GI50 (HCT-116 colon): 1.65 µM
- TGI (HCT-116 colon): 3.33 µM
- GI50 (DU-145 prostate): 0.105 µM
- TGI (DU-145 prostate): 2.11 µM
